Experimental data published in ChEMBL document CHEMBL3132769, “Fragment growing to retain or alter the selectivity of anchored kinase hinge-binding fragments” (Medchemcomm, 2014).

Legend:
[1] = target: Tyrosine-protein kinase Lyn (Homo sapiens) (UniProt P07948); test: Inhibition of human full length LYN expressed in baculovirus assessed as substrate phosphorylation using fluorescence-labelled peptides as substrate at 0.06 uM after 90 mins by microfluidic peptide phosphorylation assay
[2] = target: Insulin receptor (Homo sapiens) (UniProt P06213); test: Inhibition of human INSR catalytic domain expressed in baculovirus assessed as substrate phosphorylation using fluorescence-labelled peptides as substrate at 0.06 uM after 90 mins by microfluidic peptide phosphorylation assay
[3] = target: MAP kinase p38 (Homo sapiens) (UniProt O15264+Q15759+Q16539+P53778); test: Inhibition of human full length p38 beta2 expressed in Escherichia coli cell assessed as substrate phosphorylation using fluorescence-labelled peptides as substrate at 70 uM after 90 mins by microfluidic peptide phosphorylation assay
[4] = species: Homo sapiens; test: Inhibition of human P70S6K catalytic domain expressed in baculovirus assessed as substrate phosphorylation using fluorescence-labelled peptides as substrate at 0.2 uM after 90 mins by microfluidic peptide phosphorylation assay
[5] = target: T1, Serine/threonine-protein kinase BRSK1 (Homo sapiens) (UniProt Q8TDC3); test: Inhibition of human full length BRSK1 expressed in baculovirus assessed as substrate phosphorylation using fluorescence-labelled peptides as substrate at 95 uM after 90 mins by microfluidic peptide phosphorylation assay
T1 sequence (whole entry): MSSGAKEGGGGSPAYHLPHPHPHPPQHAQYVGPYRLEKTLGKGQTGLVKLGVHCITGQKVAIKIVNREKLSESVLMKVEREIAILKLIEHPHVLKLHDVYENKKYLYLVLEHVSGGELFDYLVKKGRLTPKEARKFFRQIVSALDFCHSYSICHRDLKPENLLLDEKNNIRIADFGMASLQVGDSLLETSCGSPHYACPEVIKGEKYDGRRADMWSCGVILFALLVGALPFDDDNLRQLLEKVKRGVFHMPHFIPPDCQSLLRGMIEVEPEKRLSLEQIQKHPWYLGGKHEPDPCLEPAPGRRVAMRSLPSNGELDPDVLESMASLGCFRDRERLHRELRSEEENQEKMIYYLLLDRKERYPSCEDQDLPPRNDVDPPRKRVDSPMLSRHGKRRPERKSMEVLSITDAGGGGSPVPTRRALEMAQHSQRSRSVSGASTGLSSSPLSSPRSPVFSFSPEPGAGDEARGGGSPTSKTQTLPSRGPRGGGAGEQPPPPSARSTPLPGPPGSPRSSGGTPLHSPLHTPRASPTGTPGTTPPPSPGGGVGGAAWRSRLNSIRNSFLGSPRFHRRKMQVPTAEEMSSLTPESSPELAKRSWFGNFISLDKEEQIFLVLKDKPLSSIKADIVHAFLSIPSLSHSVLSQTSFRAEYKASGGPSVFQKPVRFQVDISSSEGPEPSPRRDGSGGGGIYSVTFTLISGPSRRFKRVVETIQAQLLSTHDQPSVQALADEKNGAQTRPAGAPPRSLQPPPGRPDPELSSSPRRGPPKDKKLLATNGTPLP

[6] = target: Tyrosine-protein kinase HCK (Homo sapiens) (UniProt P08631); test: Inhibition of human HCK catalytic domain expressed in baculovirus assessed as substrate phosphorylation using fluorescence-labelled peptides as substrate at 9 uM after 90 mins by microfluidic peptide phosphorylation assay
Sequence of Tyrosine-protein kinase HCK (Homo sapiens) (P08631 2-526 limits assumed): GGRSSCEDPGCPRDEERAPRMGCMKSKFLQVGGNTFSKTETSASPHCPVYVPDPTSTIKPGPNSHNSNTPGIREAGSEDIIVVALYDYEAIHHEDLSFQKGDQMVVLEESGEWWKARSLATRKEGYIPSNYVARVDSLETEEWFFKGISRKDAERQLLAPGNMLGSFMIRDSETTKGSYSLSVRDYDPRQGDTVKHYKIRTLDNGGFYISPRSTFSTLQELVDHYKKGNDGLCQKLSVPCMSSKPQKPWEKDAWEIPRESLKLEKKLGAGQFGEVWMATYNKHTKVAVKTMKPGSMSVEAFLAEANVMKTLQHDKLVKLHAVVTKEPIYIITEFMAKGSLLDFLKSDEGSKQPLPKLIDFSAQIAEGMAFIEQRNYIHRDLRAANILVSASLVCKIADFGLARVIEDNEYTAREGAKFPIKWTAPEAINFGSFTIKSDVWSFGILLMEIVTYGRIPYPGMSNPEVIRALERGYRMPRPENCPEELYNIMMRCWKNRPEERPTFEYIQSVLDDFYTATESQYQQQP

[7] = target: Rho-associated protein kinase 2 (Homo sapiens) (UniProt O75116); test: Inhibition of human ROCK2 catalytic domain expressed in baculovirus assessed as substrate phosphorylation using fluorescence-labelled peptides as substrate at 9 uM after 90 mins by microfluidic peptide phosphorylation assay
[8] = target: Serine/threonine-protein kinase Chk2 (Homo sapiens) (UniProt O96017); test: Inhibition of human full length CHK2 expressed in baculovirus assessed as substrate phosphorylation using fluorescence-labelled peptides as substrate at 1000 uM after 90 mins by microfluidic peptide phosphorylation assay
Sequence of Serine/threonine-protein kinase Chk2 (Homo sapiens) (O96017 whole entry): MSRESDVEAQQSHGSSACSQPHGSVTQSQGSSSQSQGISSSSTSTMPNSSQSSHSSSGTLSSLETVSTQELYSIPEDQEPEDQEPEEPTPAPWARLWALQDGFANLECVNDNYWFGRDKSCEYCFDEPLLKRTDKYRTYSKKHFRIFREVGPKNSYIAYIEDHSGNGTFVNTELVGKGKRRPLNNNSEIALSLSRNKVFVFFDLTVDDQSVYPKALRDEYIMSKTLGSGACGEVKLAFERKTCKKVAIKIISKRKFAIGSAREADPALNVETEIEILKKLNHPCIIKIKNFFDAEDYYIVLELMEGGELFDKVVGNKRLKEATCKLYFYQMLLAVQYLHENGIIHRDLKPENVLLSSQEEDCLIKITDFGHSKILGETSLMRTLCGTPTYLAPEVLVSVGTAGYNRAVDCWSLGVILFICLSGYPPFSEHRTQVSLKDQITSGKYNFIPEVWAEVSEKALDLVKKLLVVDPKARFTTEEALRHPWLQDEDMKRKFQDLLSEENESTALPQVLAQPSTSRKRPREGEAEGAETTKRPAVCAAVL

[9] = target: Tyrosine-protein kinase Lyn (Homo sapiens) (UniProt P07948); test: Inhibition of human full length LYN expressed in baculovirus assessed as substrate phosphorylation using fluorescence-labelled peptides as substrate at 1000 uM after 90 mins by microfluidic peptide phosphorylation assay
[10] = target: Vascular endothelial growth factor receptor 2 (Homo sapiens) (UniProt P35968); test: Inhibition of human KDR cytoplasmic domain expressed in baculovirus assessed as substrate phosphorylation using fluorescence-labelled peptides as substrate at 2 uM after 90 mins by microfluidic peptide phosphorylation assay
[11] = target: Mitogen-activated protein kinase 14 (Homo sapiens) (UniProt Q16539); test: Inhibition of human truncated p38 alpha expressed in Escherichia coli cell assessed as substrate phosphorylation using fluorescence-labelled peptides as substrate at 2 uM after 90 mins by microfluidic peptide phosphorylation assay
Sequence of Mitogen-activated protein kinase 14 (Homo sapiens) (Q16539 whole entry, the tested form may be a part): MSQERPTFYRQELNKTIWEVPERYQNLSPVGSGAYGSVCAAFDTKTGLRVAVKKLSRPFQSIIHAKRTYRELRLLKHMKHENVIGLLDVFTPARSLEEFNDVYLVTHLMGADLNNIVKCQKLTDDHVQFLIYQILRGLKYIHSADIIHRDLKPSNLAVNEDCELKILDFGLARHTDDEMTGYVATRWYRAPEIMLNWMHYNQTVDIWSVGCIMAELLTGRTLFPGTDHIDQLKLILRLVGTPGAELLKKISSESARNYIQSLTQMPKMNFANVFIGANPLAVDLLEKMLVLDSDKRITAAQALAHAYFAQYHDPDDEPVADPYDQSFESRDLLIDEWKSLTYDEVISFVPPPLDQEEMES

[12] = target: T2, Interleukin-1 receptor-associated kinase 4 (Homo sapiens) (UniProt Q9NWZ3); test: Inhibition of human IRAK4 catalytic domain expressed in baculovirus assessed as substrate phosphorylation using fluorescence-labelled peptides as substrate at 2 uM after 90 mins by microfluidic peptide phosphorylation assay
T2 sequence (whole entry): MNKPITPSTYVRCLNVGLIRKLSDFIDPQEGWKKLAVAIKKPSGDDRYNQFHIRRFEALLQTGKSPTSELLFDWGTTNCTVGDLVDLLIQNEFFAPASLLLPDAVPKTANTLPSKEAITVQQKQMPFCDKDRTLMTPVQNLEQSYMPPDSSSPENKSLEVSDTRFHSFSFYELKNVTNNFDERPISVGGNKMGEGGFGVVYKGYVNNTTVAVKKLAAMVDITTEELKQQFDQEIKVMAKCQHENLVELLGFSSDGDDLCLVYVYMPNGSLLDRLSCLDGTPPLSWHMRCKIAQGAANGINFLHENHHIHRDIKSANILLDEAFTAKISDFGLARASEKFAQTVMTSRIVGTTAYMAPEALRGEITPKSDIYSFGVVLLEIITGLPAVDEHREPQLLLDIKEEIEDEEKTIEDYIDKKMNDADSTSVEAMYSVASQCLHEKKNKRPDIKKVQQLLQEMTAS

[13] = target: Fibroblast growth factor receptor 4 (Homo sapiens) (UniProt P22455); test: Inhibition of human FGFR4 catalytic domain expressed in baculovirus assessed as substrate phosphorylation using fluorescence-labelled peptides as substrate at 2 uM after 90 mins by microfluidic peptide phosphorylation assay
Sequence of Fibroblast growth factor receptor 4 (Homo sapiens) (P22455 22-802 limits assumed): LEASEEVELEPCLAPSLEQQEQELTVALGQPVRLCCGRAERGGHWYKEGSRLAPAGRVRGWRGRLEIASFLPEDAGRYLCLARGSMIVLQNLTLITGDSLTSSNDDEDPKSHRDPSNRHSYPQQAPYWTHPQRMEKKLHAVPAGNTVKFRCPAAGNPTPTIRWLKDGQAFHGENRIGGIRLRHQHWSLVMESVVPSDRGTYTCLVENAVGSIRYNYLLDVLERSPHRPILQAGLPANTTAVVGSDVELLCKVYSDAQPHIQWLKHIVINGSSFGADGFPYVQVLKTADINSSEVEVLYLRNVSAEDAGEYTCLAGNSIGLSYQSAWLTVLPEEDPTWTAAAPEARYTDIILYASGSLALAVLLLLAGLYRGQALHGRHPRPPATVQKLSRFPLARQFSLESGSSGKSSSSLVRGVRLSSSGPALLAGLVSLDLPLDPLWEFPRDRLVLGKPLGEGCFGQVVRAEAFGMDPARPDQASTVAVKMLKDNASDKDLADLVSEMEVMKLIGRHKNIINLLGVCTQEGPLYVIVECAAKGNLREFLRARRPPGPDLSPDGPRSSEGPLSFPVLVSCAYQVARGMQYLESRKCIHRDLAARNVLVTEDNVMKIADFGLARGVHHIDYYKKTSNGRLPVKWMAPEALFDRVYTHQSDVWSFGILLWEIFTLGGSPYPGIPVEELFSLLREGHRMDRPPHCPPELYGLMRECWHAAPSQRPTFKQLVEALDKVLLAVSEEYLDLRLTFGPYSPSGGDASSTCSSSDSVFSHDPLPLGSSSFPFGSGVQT

[14] = test system: Fibroblast growth factor receptor 2 (Homo sapiens), P21802 [N549H]; test: Inhibition of human FGFR2 N549H mutant catalytic domain expressed in baculovirus assessed as substrate phosphorylation using fluorescence-labelled peptides as substrate at 8 uM after 90 mins by microfluidic peptide phosphorylation assay
[15] = target: Tyrosine-protein kinase ABL1 (Homo sapiens) (UniProt P00519); test: Inhibition of human full-length ABL expressed in baculovirus assessed as substrate phosphorylation using fluorescence-labelled peptides as substrate at 8 uM after 90 mins by microfluidic peptide phosphorylation assay
Sequence of Tyrosine-protein kinase ABL1 (Homo sapiens) (P00519 whole entry): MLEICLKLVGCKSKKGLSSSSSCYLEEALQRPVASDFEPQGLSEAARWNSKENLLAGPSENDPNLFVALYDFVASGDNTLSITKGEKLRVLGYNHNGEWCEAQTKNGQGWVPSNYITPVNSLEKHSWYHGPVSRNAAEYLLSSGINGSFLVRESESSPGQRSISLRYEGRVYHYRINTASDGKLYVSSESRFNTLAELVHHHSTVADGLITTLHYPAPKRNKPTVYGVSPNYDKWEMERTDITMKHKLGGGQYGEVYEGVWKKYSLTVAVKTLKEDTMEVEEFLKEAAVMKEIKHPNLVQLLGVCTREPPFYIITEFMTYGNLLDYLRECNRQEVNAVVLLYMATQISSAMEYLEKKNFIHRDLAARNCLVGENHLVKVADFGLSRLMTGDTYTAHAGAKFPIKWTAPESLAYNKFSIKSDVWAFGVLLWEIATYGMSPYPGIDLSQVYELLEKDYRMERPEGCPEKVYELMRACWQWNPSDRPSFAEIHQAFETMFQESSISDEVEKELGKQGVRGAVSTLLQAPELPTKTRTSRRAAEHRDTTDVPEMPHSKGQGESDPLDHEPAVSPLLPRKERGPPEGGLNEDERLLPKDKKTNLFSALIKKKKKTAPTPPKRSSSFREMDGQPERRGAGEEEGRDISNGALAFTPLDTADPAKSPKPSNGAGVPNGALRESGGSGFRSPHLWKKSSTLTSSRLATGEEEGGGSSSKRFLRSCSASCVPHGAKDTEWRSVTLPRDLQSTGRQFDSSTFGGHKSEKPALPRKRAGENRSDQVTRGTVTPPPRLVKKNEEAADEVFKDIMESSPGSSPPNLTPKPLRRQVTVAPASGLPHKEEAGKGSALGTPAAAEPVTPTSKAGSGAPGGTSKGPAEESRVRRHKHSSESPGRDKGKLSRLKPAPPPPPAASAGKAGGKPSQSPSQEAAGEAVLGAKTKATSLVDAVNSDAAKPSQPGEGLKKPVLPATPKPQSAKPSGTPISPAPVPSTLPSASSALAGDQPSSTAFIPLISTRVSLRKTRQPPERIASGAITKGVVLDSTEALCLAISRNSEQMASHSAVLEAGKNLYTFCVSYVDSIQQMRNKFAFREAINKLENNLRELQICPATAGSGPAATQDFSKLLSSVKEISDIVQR

[16] = target: RAC-alpha serine/threonine-protein kinase (Homo sapiens) (UniProt P31749); conditions: 0.1 uM
Sequence of RAC-alpha serine/threonine-protein kinase (Homo sapiens) (P31749 whole entry): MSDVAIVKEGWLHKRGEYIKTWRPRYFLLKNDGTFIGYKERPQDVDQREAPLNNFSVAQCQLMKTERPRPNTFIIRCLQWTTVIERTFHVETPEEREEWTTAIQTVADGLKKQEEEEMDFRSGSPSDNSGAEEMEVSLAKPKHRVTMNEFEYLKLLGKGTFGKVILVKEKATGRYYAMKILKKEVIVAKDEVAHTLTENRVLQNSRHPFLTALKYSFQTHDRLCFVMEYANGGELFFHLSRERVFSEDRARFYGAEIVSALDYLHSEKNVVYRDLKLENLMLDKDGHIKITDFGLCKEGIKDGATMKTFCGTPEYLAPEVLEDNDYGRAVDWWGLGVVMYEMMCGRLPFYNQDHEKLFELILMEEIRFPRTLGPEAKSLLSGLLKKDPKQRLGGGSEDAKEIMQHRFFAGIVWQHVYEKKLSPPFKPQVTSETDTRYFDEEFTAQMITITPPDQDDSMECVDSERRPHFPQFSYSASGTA
Description: Inhibition of human AKT1 catalytic domain expressed in baculovirus assessed as substrate phosphorylation using fluorescence-labelled peptides as substrate at 0.1 uM after 90 mins by microfluidic peptide phosphorylation assay

[17] = target: Glycogen synthase kinase-3 beta (Homo sapiens) (UniProt P49841); conditions: 0.1 uM
Sequence of Glycogen synthase kinase-3 beta (Homo sapiens) (P49841 whole entry, looked up): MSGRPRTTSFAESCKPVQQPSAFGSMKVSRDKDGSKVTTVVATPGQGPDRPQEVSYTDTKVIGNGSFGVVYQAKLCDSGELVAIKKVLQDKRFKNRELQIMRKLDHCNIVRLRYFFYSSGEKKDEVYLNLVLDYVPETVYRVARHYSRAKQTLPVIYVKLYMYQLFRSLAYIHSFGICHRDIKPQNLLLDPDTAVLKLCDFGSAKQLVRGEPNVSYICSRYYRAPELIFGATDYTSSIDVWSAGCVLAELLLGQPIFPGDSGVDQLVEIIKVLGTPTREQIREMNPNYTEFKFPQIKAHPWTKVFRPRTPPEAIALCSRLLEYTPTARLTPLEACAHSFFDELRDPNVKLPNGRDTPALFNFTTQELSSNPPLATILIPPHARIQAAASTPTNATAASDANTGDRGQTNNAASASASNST
Description: Inhibition of human full length GSK-3 beta expressed in baculovirus assessed as substrate phosphorylation using fluorescence-labelled peptides as substrate at 0.1 uM after 90 mins by microfluidic peptide phosphorylation assay

Sequence of Tyrosine-protein kinase Lyn (Homo sapiens) (P07948 2-512 limits assumed): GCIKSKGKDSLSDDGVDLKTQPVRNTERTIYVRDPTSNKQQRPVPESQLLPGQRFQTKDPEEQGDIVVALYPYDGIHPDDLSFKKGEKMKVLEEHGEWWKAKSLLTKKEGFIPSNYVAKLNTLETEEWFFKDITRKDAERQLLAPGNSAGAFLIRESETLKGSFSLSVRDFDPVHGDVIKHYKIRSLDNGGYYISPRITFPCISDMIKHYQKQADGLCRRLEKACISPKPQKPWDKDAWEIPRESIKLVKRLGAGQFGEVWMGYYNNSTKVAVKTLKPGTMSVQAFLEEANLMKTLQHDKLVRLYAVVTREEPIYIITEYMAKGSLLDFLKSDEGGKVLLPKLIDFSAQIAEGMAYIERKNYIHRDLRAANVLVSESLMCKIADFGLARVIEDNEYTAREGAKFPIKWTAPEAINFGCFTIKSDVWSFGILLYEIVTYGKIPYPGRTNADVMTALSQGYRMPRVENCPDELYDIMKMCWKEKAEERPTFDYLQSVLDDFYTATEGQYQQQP

NC1(Cc2ccc(Cl)cc2)CCN(c2ncnc3[nH]ccc23)CC1
inhibition [1]: 0%
inhibition [2]: 6%

CNCc1ccc(-c2ncnc3[nH]cnc23)cc1
inhibition [3]: 1.5%

Clc1ccc(C2(c3ccc(-c4ncnc5[nH]cnc45)cc3)CCNCC2)cc1
inhibition [4]: 87.5%

NCCc1ccc(-c2ncnc3[nH]cnc23)cc1
inhibition [5]: 44%

NCC1CN(c2ncnc3[nH]c4cnccc4c23)CCO1 (configuration not stated)
inhibition [6]: 29%
inhibition [7]: 53%

c1cnc2[nH]ccc2c1
inhibition [8]: 74%
inhibition [9]: 31.5%

NC1CCN(c2ncnc3[nH]ccc23)CC1
inhibition [10]: 0%
inhibition [11]: 2%
inhibition [12]: 1.5%
inhibition [13]: 0%

NCC1CCN(c2ncnc3[nH]ccc23)CC1
inhibition [14]: 0%
inhibition [15]: 57.5%

C[C@H](CN(C)C)Oc1nc(Nc2cc3cccc(Cl)c3cn2)cnc1C#N
inhibition [16]: 0%
inhibition [17]: 0%
